We go through 20 compounds from ChEMBL document CHEMBL3991946, “Linked Myc-max small molecule inhibitors” (2014).

The target in data set [1] is T1, Myc proto-oncogene protein (Homo sapiens, UniProt P01106). As to the kind of experiment: Binding affinity to recombinant full-length N-terminal hexahistidine-tagged c-Myc (353 to 437 residues) bHLH-ZIP domain (unknown origin) expressed in Escherichia coli BL21 DE3 (pLysS) by fluorescence polarization assay.
The target in data set [2] is T1, Myc proto-oncogene protein. As to the kind of experiment: Displacement of 10058-F4 from recombinant full-length N-terminal hexahistidine-tagged c-Myc (353 to 437 residues) bHLH-ZIP domain (unknown origin) expressed in Escherichia coli BL21 DE3 (pLysS) by fluorescence polarization assay.
In a further data set the test system is Daudi. As to the kind of experiment: Cytotoxicity against human Daudi Burkitt lymphoma cells expressing c-Myc assessed as growth inhibition after 4 to 5 days by MTT assay. In kind it is functional, cell-based.
In a further data set the test system is HL-60. As to the kind of experiment: Cytotoxicity against human HL60 cells expressing c-Myc assessed as growth inhibition after 4 to 5 days by MTT assay. In kind it is functional, cell-based.
Data set [3] addresses T2, c-Myc/c-Max (Homo sapiens) (UniProt P01106+P61244). As to the kind of experiment: Inhibition of recombinant c-Myc/Max (unknown origin) expressed in human HL60 cells assessed as disruption of c-Myc/Max association after 16 hrs by co-immunoprecipitation assay. Type of data set: cell-based.
Data set [4] is described as follows: Metabolic stability of the compound.
For data set [5], the target named is T2, c-Myc/c-Max (Homo sapiens). As to the kind of experiment: Inhibition of recombinant c-Myc/Max (unknown origin) expressed in human HL60 cells assessed as disruption of c-Myc/Max association after 6 hrs by co-immunoprecipitation assay. In kind it is cell-based.
The target of data set [6] is T1, Myc proto-oncogene protein. As to the kind of experiment: Binding affinity to recombinant full-length N-terminal hexahistidine-tagged c-Myc (353 to 437 residues) bHLH-ZIP domain (unknown origin) expressed in Escherichia coli BL21 DE3 (pLysS) assessed as changes in shape or intensity of CD spectrum at 5 uM by circular dichroism assay.
Data set [7] can be described thus: Cytotoxicity against non-transformed rat TGR1 assessed as growth inhibition after 4 to 5 days by MTT assay. In kind it is cell-based.
Data set [8] addresses T1, Myc proto-oncogene protein. As to the kind of experiment: Binding affinity to recombinant truncated N-terminal hexahistidine-tagged c-Myc (363 to 381 residues) bHLH-ZIP domain (unknown origin) expressed in Escherichia coli BL21 DE3 (pLysS) by fluorescence polarization assay.
The target in data set [9] is T3, c-Myc/Max (Homo sapiens) (UniProt P01106+P61244). As to the kind of experiment: Inhibition of recombinant full-length N-terminal hexahistidine-tagged c-Myc (353 to 437 residues) bHLH-ZIP domain (unknown origin) expressed in Escherichia coli BL21 DE3 (pLysS)/human hexahistidine-tagged Max p21 expressed in Escherichia coli M15 (pRep4) assessed as disruption of E-Box DNA binding preincubated for 30 mins with c-Myc followed by Max p21 and E-box element addition measured after 15 mins by electrophoretic mobility shift assay.

Data set [10] deals with T1, Myc proto-oncogene protein. As to the kind of experiment: Binding affinity to recombinant truncated N-terminal hexahistidine-tagged c-Myc (400 to 439 residues) bHLH-ZIP domain (unknown origin) expressed in Escherichia coli BL21 DE3 (pLysS) by fluorescence polarization assay.
The nature of data set [11]: Cytotoxicity against c-Myc null rat TGR1 reconstituted with HMGA1b or MT-MC1 assessed as growth inhibition after 4 to 5 days by MTT assay. Type of data set: cell-based.
Data set [12] deals with Protein max (Homo sapiens) (UniProt P61244). As to the kind of experiment: Binding affinity to human hexahistidine-tagged Max p21 bHLH-ZIP domain expressed in Escherichia coli M15 (pRep4) at 10 uM by fluorescence polarization assay.
In data set [13] the target is T1, Myc proto-oncogene protein. As to the kind of experiment: Binding affinity to recombinant full-length N-terminal hexahistidine-tagged c-Myc (353 to 437 residues) bHLH-ZIP domain (unknown origin) expressed in Escherichia coli BL21 DE3 (pLysS) assessed as changes in COSY spectra in alpha1H region at 500 uM by NMR spectroscopy.
The target in data set [14] is T1, Myc proto-oncogene protein. As to the kind of experiment: Binding affinity to recombinant full-length N-terminal hexahistidine-tagged c-Myc (353 to 437 residues) bHLH-ZIP domain (unknown origin) expressed in Escherichia coli BL21 DE3 (pLysS) assessed as changes in alpha1H signals of Phe 374 to 375 and Tyr 402 residues at 500 uM by NMR spectroscopy.
The target of data set [15] is T1, Myc proto-oncogene protein. As to the kind of experiment: Binding affinity to recombinant full-length N-terminal hexahistidine-tagged c-Myc (353 to 437 residues) bHLH-ZIP domain (unknown origin) expressed in Escherichia coli BL21 DE3 (pLysS) assessed as changes in NOESY spectra at 500 uM by NMR spectroscopy.
Data set [16] concerns the target T3, c-Myc/Max (Homo sapiens). As to the kind of experiment: Inhibition of recombinant full-length N-terminal hexahistidine-tagged c-Myc (353 to 437 residues) bHLH-ZIP domain (unknown origin) expressed in Escherichia coli BL21 DE3 (pLysS)/human hexahistidine-tagged Max p21 expressed in Escherichia coli M15 (pRep4) assessed as disruption of E-Box DNA binding at 25 to 50 nM preincubated for 30 mins with c-Myc followed by Max p21 and E-box element measured after 15 mins by electrophoretic mobility shift assay.

In data set [17] the target is T1, Myc proto-oncogene protein. As to the kind of experiment: Binding affinity to recombinant full-length N-terminal hexahistidine-tagged c-Myc (353 to 437 residues) bHLH-ZIP domain (unknown origin) expressed in Escherichia coli BL21 DE3 (pLysS) assessed as changes in alpha1H signals of Tyr 402 residues at 500 uM by NMR spectroscopy.

Molecules are shown by their SMILES. Activity calls are given as the source filed them. The rule behind the calls is not given here.

T2 sequence (P01106 whole entry): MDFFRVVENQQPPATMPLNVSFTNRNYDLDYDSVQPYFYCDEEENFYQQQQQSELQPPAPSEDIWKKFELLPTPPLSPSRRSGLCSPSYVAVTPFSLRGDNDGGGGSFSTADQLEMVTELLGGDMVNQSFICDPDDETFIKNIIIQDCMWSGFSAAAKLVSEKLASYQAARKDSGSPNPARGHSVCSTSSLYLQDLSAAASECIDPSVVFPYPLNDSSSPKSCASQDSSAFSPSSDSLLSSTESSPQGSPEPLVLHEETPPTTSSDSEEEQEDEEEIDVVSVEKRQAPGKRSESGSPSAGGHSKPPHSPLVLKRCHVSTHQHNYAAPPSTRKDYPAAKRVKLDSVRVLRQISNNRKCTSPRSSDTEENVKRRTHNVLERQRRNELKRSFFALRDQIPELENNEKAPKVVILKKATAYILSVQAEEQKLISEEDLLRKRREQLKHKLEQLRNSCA
T2 sequence (P61244 2-160 partner limits assumed): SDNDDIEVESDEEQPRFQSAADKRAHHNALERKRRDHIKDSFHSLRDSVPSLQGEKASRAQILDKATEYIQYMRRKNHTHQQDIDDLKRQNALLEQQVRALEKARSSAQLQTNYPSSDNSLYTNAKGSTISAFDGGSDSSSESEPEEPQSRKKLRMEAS
T1 sequence (P01106 whole entry, the tested form may be a part): as the sequence (P01106 whole entry) above
Sequence of Protein max (Homo sapiens) (P61244 whole entry, the tested form may be a part): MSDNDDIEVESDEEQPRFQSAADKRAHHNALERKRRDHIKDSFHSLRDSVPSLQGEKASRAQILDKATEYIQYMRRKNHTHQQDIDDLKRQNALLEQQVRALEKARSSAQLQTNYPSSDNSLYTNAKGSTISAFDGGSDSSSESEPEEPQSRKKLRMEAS

Consider `CCc1ccc(/C=C2\SC(=O)N(CCCCCCNC(C)=O)C2=O)cc1`, for which the Kd in data set [1] turned out to be 7000 nM. Also, in data set [2], the result was Active.
With `O=C(NCCCCCN1C(=O)S/C(=C\c2ccc(F)cc2)C1=O)c1ccc(Nc2ccc([N+](=O)[O-])c3nonc23)cc1`, the Kd in data set [1] was 3.6 nM. The IC50 in the data set with Daudi was 6000 to 7000 nM; with HL-60, 6000 to 10000 nM.
For the compound `O=C(NCCCCCN1C(=O)S/C(=C\c2ccc(F)cc2)C1=O)c1ccccc1Nc1ccc([N+](=O)[O-])c2nonc12`, the Kd in data set [1] was 11 nM. For the same compound, the inhibition entry in data set [3] was “inactive”. The IC50 is 1000 to 1200 nM in the data set on Daudi and 1500 to 1700 nM in the data set on HL-60. Further, the Stability result in data set [4] is “Unstable”. Also, the inhibition result in data set [5] was “Dose-dependent effect”.
`O=C1NC(=S)S/C1=C\c1ccc(C(=O)NCCCCCNC(=O)c2ccccc2Nc2ccc([N+](=O)[O-])c3nonc23)cc1`: the result in data set [6] and in [12] was inactive. Further, the Kd in [1] turned out to be 24 nM; in data set [8], 10 nM; in [10], 122 nM. Also, the “growth inhibition (GI)” value in data set [7] and in data set [11] was “Non-Toxic” each time. Moreover, the inhibition result at c-Myc/Max (Homo sapiens) [9] was “Active”. Moreover, the IC50 in the data set on HL-60 was greater than 10000 nM.
`O=C(CNC(=O)c1ccc(Nc2ccc([N+](=O)[O-])c3nonc23)cc1)NCCCCCNC(=O)c1ccc(/C=C2\SC(=S)NC2=O)cc1`: in [1], the Kd was 320 nM. Further, the results for the IC50 in the data set with Daudi and in the data set with HL-60 were 7000 to 11000 nM and 7000 to 13000 nM, respectively. The “growth inhibition (GI)” value in data set [7] and in data set [11] was “Non-Toxic” each time.
As to `CCc1ccc(/C=C2\SC(=O)N(CCCCCNC(=O)c3ccc(Nc4ccc([N+](=O)[O-])c5nonc45)cc3)C2=O)cc1`, the outcome in data set [6] and in [12] was inactive. In addition, the inhibition entry (in data set [13]; in [14]; at c-Myc/Max (Homo sapiens) [9]) was “Active” throughout. For the same compound, the Kd in [1] stood at 0.6 nM. For the same compound, the values for the IC50 in the data set with Daudi and with HL-60 were 2000 to 4000 nM and 7000 to 9000 nM, respectively. Besides, the “growth inhibition (GI)” value in data set [7] and in [11] was “Non-Toxic” throughout. For the same compound, the result in data set [15] was Active.
For `CC(=O)NCCCCCOC(=O)c1ccc(Nc2ccc([N+](=O)[O-])c3nonc23)cc1`, the Kd in [1] amounted to 1700 nM.
For `O=C1NC(=S)S/C1=C\c1ccc(C(=O)NCCCCCNC(=O)c2cccc(Nc3ccc([N+](=O)[O-])c4nonc34)c2)cc1`, the outcome in data set [6] and in [12] was inactive. The “growth inhibition (GI)” value in data set [7] and in data set [11] was “Non-Toxic” in each case. For the same compound, on c-Myc/Max (Homo sapiens) [9], the inhibition result was “Active”.
Regarding `O=C(NCCCCCCN1C(=O)S/C(=C\c2ccc(F)cc2)C1=O)c1ccc(Nc2ccc([N+](=O)[O-])c3nonc23)cc1`, in [1], the Kd was determined as 1.7 nM. Also, the inhibition entry in data set [3] was “inactive”. In addition, the IC50 is 1200 nM with Daudi and 3000 to 4000 nM with HL-60. The Stability entry in data set [4] was “Unstable”. In addition, the inhibition result in data set [5] is “Dose-dependent effect”.
Take `CCc1ccc(/C=C2\SC(=O)N(CCCCNC(=O)c3ccc(Nc4ccc([N+](=O)[O-])c5nonc45)cc3)C2=O)cc1`: the “growth inhibition (GI)” value in data set [7] and in data set [11] was “Non-Toxic” throughout. Also, the Stability entry in data set [4] is on record as “Unstable”.
Turning to `O=C1NC(=S)S/C1=C\c1ccc(C(=O)O)cc1`, in data set [1], the Kd was 26000 nM.
For the compound `CCc1ccc(/C=C2\SC(=S)NC2=O)cc1`, the inhibition result (at c-Myc/Max (Homo sapiens) [16]; in data set [13]; in [17]) was “Active” each time. Also, the “growth inhibition (GI)” value in [7] and in [11] was “Non-Toxic” in each case.
For the compound `O=C(NCCCCCCN1C(=O)S/C(=C\c2ccc(F)cc2)C1=O)c1ccccc1Nc1ccc([N+](=O)[O-])c2nonc12`, the Kd in data set [1] turned out to be 4.6 nM. For the same compound, the IC50 with Daudi fell in the range of 6000 to 8000 nM; with HL-60 it was 3000 to 3500 nM.
As to `CCc1ccc(/C=C2\SC(=O)N(CCCCCNC(=O)CNC(=O)c3ccc(Nc4ccc([N+](=O)[O-])c5nonc45)cc3)C2=O)cc1`, the Kd in data set [1] is 3.6 nM. For the same compound, the figures for the IC50 in the data set with Daudi and with HL-60 were 4000 to 6000 nM and 2000 to 4000 nM, respectively. Besides, the “growth inhibition (GI)” value in data set [7] and in [11] was “Non-Toxic” in each case.
For the compound `CCc1ccc(/C=C2\SC(=O)N(CCCCCNC(=O)c3cccc(Nc4ccc([N+](=O)[O-])c5nonc45)c3)C2=O)cc1`, the result in data set [6] and in data set [12] was inactive. In data set [1], the Kd turned out to be 110 nM. Further, the IC50 in the data set on Daudi was greater than 10000 nM; with HL-60, greater than 30000 nM. The “growth inhibition (GI)” value in data set [7] and in data set [11] was “Non-Toxic” each time. Moreover, the inhibition result at c-Myc/Max (Homo sapiens) [9] was “Active”.
`CCc1ccc(/C=C2\SC(=O)N(CCCCCNC(=O)CCCCCNC(=O)c3ccc(Nc4ccc([N+](=O)[O-])c5nonc45)cc3)C2=O)cc1`: the Kd in data set [1] came out at 5 nM.
For the compound `CCc1ccc(/C=C2\SC(=O)N(CCCCNC(=O)c3ccccc3Nc3ccc([N+](=O)[O-])c4nonc34)C2=O)cc1`, the Kd in [1] is 3 nM. The inhibition result in data set [3] was “inactive”. For the same compound, the IC50 was 2000 to 2500 nM in the data set with Daudi and 2000 to 6000 nM in the data set on HL-60. In data set [4], the Stability result was “Unstable”. Besides, in [5], the inhibition result was “Dose-dependent effect”.
For `O=C1NC(=S)S/C1=C/c1ccc(C(=O)NCCCCCNC(=O)c2ccc(Nc3ccc([N+](=O)[O-])c4nonc34)cc2)cc1`, the result in data set [6] and in data set [12] was inactive. Besides, the “growth inhibition (GI)” value in data set [7] and in data set [11] was “Non-Toxic” each time. For the same compound, the inhibition entry on c-Myc/Max (Homo sapiens) [9] was “Active”.
Take `O=[N+]([O-])c1ccc(Nc2ccccc2-c2ccccc2)c2nonc12`: the inhibition entry (on c-Myc/Max (Homo sapiens) [16]; in data set [13]) was “Active” in each case. In addition, the “growth inhibition (GI)” value in data set [7] and in data set [11] was “Non-Toxic” throughout.
In the case of `O=C(CCCCCNC(=O)c1ccc(Nc2ccc([N+](=O)[O-])c3nonc23)cc1)NCCCCCNC(=O)c1ccc(/C=C2\SC(=S)NC2=O)cc1`, the Kd in data set [1] stood at 55 nM.
